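96-well plates; 48 h exposure; 5 concentrations. Endpoints by linear interpolation between flanking doses. Not reached: highest tested concentration assigned. At the TGI there is no net growth.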 *1 amine or outer side, *2 acyl side, *3 side chain or, on linkers, in order; H or OH if unused. Where a SMILES comes first, the peptide text is derived from it. [ ]: non-standard residue; d: D form. The star is where a group is joined. X31 = CC(=O)N(C)SCC(N[*:1])C(=O)[*:2]; Fmoc = O=C(OCC1c2ccccc2-c2ccccc21)*; For = O=C*
Assays:
Assay in all cases: NCI-60 cell line screen, 48 h
HL-60(TB) leukemia = system: HL-60(TB) leukemia
HOP-62 NSCLC = system: HOP-62 NSCLC
HOP-92 NSCLC = system: HOP-92 NSCLC
HS 578T breast = system: HS 578T breast
K-562 leukemia = system: K-562 leukemia
LOX IMVI melanoma = system: LOX IMVI melanoma
MALME-3M melanoma = system: MALME-3M melanoma
NCI-H226 lung = system: NCI-H226 lung
SW-620 colon = system: SW-620 colon
U251 CNS = system: U251 CNS

Structure (SMILES) | TGI (HL-60(TB) leukemia) | TGI (HOP-62 NSCLC) | TGI (HOP-92 NSCLC) | TGI (HS 578T breast) | TGI (K-562 leukemia) | TGI (LOX IMVI melanoma) | TGI (MALME-3M melanoma) | TGI (NCI-H226 lung) | TGI (SW-620 colon) | TGI (U251 CNS)
CC(=O)/C(=C(/Br)I)c1ccccc1 | 4.95 µM | 29.7 µM | 23.8 µM | > 66 µM | > 31.6 µM | 22.5 µM | 23.1 µM | 27.2 µM | 11.4 µM | 26.5 µM
CCOC(=O)c1ccc(Nc2cnc3ccc(C(F)(F)F)cc3n2)cc1 | 37.7 µM | 46.6 µM | 23.5 µM | 59.1 µM | 53.7 µM | 29.3 µM | 79.2 µM | 35.9 µM | 31.7 µM | 31.8 µM
Cc1ccc([N+](=O)[O-])c2c(NCCC[N+](C)(C)[O-])ccnc12 | > 100 µM | > 100 µM | > 100 µM | > 100 µM | > 100 µM | > 100 µM | > 100 µM | > 100 µM | > 100 µM | > 100 µM
CC(=O)N(C)SCC(NC(=O)C(Cc1ccccc1)NC(=O)OCC1c2ccccc2-c2ccccc21)C(=O)NC(Cc1ccccc1)C(=O)NC(Cc1cn(C=O)c2ccccc12)C(=O)NC(CCCCNC(=O)OCC1c2ccccc2-c2ccccc21)C(=O)NC(C(=O)NC(CSN(C)C(C)=O)C(=O)NC(C(N)=O)C(C)O)C(C)O (stereo not given) (Fmoc-F[X31]FW(For)K(Fmoc)T[X31]T-NH2; configuration not given here) | > 100 µM | > 100 µM | 62.4 µM | > 100 µM | > 100 µM | > 100 µM | > 100 µM | > 100 µM | > 100 µM | > 100 µM

— PubChem BioAssay (NCI)
